# From ChEMBL document CHEMBL6103573, “Discovery of novel thienopyridine indole derivatives as inhibitors of tubulin polymerization targeting the colchicine-binding site with potent anticancer activities” (Eur J Med Chem, 2025)
# Calls of active or inactive are those of the source. The calls are words filed in the database; no cut-off is given here.
# What was measured:
# HCT-116 = test: Antiproliferative activity against human HCT-116 cells assessed as inhibition of cell proliferation incubated for 48 hrs by MTT assay; format: functional, cell-based; details: HCT-116, 48 h
# KYSE-450 = test: Antiproliferative activity against human KYSE-450 cells assessed as inhibition of cell proliferation incubated for 48 hrs by MTT assay; format: functional, cell-based; details: KYSE-450, 48 h
# MGC-803 [1] = test: Antiproliferative activity against human MGC-803 cells assessed as inhibition of cell proliferation incubated for 48 hrs by MTT assay; format: functional, cell-based; details: MGC-803, 48 h
# MCF7 = test: Antiproliferative activity against human MCF7 cells assessed as inhibition of cell proliferation incubated for 48 hrs by MTT assay; format: functional, cell-based; details: MCF7, 48 h
# Huh-7 = test: Antiproliferative activity against human Huh-7 cells assessed as inhibition of cell proliferation incubated for 48 hrs by MTT assay; format: functional, cell-based; details: Huh-7, 48 h
# NCI-H1975 = test: Antiproliferative activity against human NCI-H1975 cells assessed as inhibition of cell proliferation incubated for 48 hrs by MTT assay; format: functional, cell-based; details: NCI-H1975, 48 h
# HGC-27 [2] = test: Antiproliferative activity against human HGC-27 cells assessed as reduction in cell viability at 0.25 to 2.0 nmol/L by MTT assay; format: functional, cell-based; details: dose 0.25-2 nmol/L, time 6-48 hrs
# Tubulin = test: Inhibition of tubulin (unknown origin) polymerization assessed as decrease in fluorescence intensity in presence of GTP by fluorescence microplate reader; format: protein-complex assay, Homo sapiens
# [3] = target: Tubulin beta (Homo sapiens) (UniProt P68371+Q9H4B7+Q13509+P04350+Q3ZCM7+P07437+Q13885+Q9BVA1+Q9BUF5+A6NNZ2); test: Competitive binding affinity to beta-tubulin colchicine binding site in human MGC-803 cells assessed as inhibition of EBI-beta-tubulin adduct band formation at 1 umol/L preincubated for 2 hrs followed by EBI addition and measured after 2 hrs by Western blotting analysis; format: cell-based; details: dose 1.0 µmol/L, time 4.0 hrs
# Tubulin (Homo sapiens) [4] = target: T1, Tubulin (Homo sapiens) (UniProt P68371+Q9H4B7+P0DPH7+P68366+Q13509+Q71U36+P04350+Q3ZCM7+P07437+P68363+Q9BQE3+Q6PEY2+Q13885+Q9BVA1+Q9BUF5); test: Disruption of microtubule network in human MGC-803 cells assessed as disruption of mitosis at 0.25 to 2.0 nmol/L incubated for 24 hrs by DAPI staining based fluorescence microscopic analysis; format: cell-based; details: dose 0.25-2 nmol/L
# Tubulin (Homo sapiens) [5] = target: T1, Tubulin (Homo sapiens); test: Disruption of microtubule network in human MGC-803 cells assessed as appearance of multinucleation at 0.25 to 2.0 nmol/L incubated for 24 hrs by DAPI staining based fluorescence microscopic analysis; format: cell-based; details: dose 0.25-2 nmol/L
# HGC-27 [6] = test: Inhibition of colony formation in human HGC-27 cells at 0.5 nmol/L incubated for 7 days by crystal violet staining based colony formation assay relative to control; format: functional; details: HGC-27, 168 h, time 7 day
# MGC-803 [7] = test: Induction of cell cycle arrest in human MGC-803 cells assessed as accumulation of cells at G2/M phase incubated for 24 hrs by RNase A/propidium iodide staining based flow cytometric analysis; format: functional; details: dose 0.25-2 nmol/L
# HGC-27 [8] = test: Induction of cell cycle arrest in human HGC-27 cells assessed as downregulation of Cdc2 phosphorylation at Tyr15 residue measured after 48 hrs by Western blot analysis; format: functional, cell-based; details: dose 0.25-2 nmol/L
# HGC-27 [9] = test: Induction of cell cycle arrest at G2 phase in human HGC-27 cells assessed as downregulation of Cyclin B1 level at 0.25 to 2.0 nmol/L measured after 48 hrs by Western blot analysis; format: functional, cell-based; details: dose 0.25-2 nmol/L
# HGC-27 [10] = test: Induction of cell cycle arrest at G2 phase in human HGC-27 cells assessed as increase in p-Histone H3 level at 0.25 to 2.0 nmol/L measured after 48 hrs by Western blot analysis; format: functional, cell-based; details: dose 0.25-2 nmol/L
# MGC-803 [11] = test: Induction of apoptosis in human MGC-803 cells assessed as appearance of round cells at 0.25 to 2.0 nmol/L incubated for 48 hrs by bright field microscopic analysis; format: functional, cell-based; details: dose 0.25-2 nmol/L
# MGC-803 [12] = test: Induction of apoptosis in human MGC-803 cells assessed as increase in dead to live cells ratio at 0.25 to 2.0 nmol/L incubated for 48 hrs by Calcein-AM/PI staining based analysis; format: functional, cell-based; details: dose 0.25-2 nmol/L
# HGC-27 [13] = test: Induction of apoptosis in human HGC-27 cells assessed as appearance of round cells at 0.25 to 2.0 nmol/L incubated for 48 hrs by bright field microscopic analysis; format: functional, cell-based; details: dose 0.25-2 nmol/L
# HGC-27 [14] = test: Induction of apoptosis in human HGC-27 cells assessed as nuclei shrinkage at 0.25 to 2.0 nmol/L incubated for 48 hrs by DAPI staining based analysis; format: functional, cell-based; details: dose 0.25-2 nmol/L
# HGC-27 [15] = test: Induction of apoptosis in human HGC-27 cells assessed as increase in cleaved Caspase-9 expression at 0.25 to 2.0 nmol/L incubated for 48 hrs by Western blotting analysis; format: functional, cell-based; details: dose 0.25-2 nmol/L
# MGC-803 [16] = test: Induction of apoptosis in human MGC-803 cells assessed as early apoptotic cells at 0.25 nmol/L incubated for 48 hrs by Annexin V-FITC/propidium iodide staining based flow cytometry analysis (reference value: 0.83 %); format: functional
# MGC-803 [17] = test: Induction of apoptosis in human MGC-803 cells assessed as early apoptotic cells at 0.5 nmol/L incubated for 48 hrs by Annexin V-FITC/propidium iodide staining based flow cytometry analysis (reference value: 0.83 %); format: functional
# HGC-27 [18] = test: Induction of apoptosis in human HGC-27 cells assessed as late apoptotic cells at 0.5 nmol/L incubated for 48 hrs by Annexin V-FITC/propidium iodide staining based flow cytometry analysis (reference value: 3.70 %); format: functional
# HGC-27 [19] = test: Induction of apoptosis in human HGC-27 cells assessed as late apoptotic cells at 1.0 nmol/L incubated for 48 hrs by Annexin V-FITC/propidium iodide staining based flow cytometry analysis (reference value: 3.70 %); format: functional
# HGC-27 [20] = test: Induction of apoptosis in human HGC-27 cells assessed as total apoptotic rate at 2 nmol/L incubated for 48 hrs by Annexin V-FITC/propidium iodide staining based flow cytometry analysis relative to control; format: functional
# HGC-27 [21] = test: Anti-migratory activity against human HGC-27 cells assessed as decrease in cell migration at 1 nmol/L measured after 24 hrs by wound healing assay relative to control; format: functional; parameters: scale not given: the % may be the effect or the level left
# HUVEC [22] = test: Anti-angiogenesis activity in HUVEC cells assessed as reduction in cell viability by measuring survival rate at 2 nmol/L incubated for 24 hrs by MTT assay relative to control; format: functional; details: Homo sapiens, read-out: Survival
# HUVEC [23] = test: Anti-migratory activity against HUVEC cells assessed as wound healing rate at 1 nmol/L measured after 24 hrs by wound healing assay (reference value: 97 %); format: functional, Homo sapiens
# HUVEC [24] = test: Anti-migratory activity against HUVEC cells assessed as wound healing rate at 2.0 nmol/L measured after 24 hrs by wound healing assay (reference value: 97 %); format: functional, Homo sapiens
# MGC-803 [25] = test: Antitumor activity against human MGC-803 cells xenografted in female BALB/c-nu nude mouse assessed as tumor inhibition rate at 5 mg/kg, po administrated every other day for 11 times and measured after 21 days relative to control; format: functional; details: MGC-803, 504 h, time 21 day, read-out: TGI
# MGC-803 [26] = test: Antitumor activity against human MGC-803 cells xenografted in female BALB/c-nu nude mouse assessed as reduction in Ki67 expression in tumor at 5 mg/kg, po administrated […] for 11 times and measured after 21 days by immunohistochemical analysis; format: functional, organism-based; details: time 21.0 day
smiles,measurement,setting,value
CN(c1ccc2c(ccn2C)c1)c1nc(N2CCCC2)nc2sccc12,IC50,HCT-116,2.89 nM
same,IC50,KYSE-450,3.16 nM
same,IC50,MGC-803 [1],1.61 nM
same,IC50,MCF7,1.85 nM
same,IC50,Huh-7,2.09 nM
same,IC50,NCI-H1975,2.96 nM
same,Activity,HGC-27 [2],Time-dependent-effect
same,IC50,Tubulin,2510 nM
same,Activity,[3],Active; Stronger Affinity Observed
same,Activity,Tubulin (Homo sapiens) [4],Active
same,Activity,Tubulin (Homo sapiens) [5],Active
same,inhibition at 0.0005 µM,HGC-27 [6],> 90%
same,Activity,MGC-803 [7],Dose-dependent-effect
same,Activity,HGC-27 [8],Dose-dependent-effect
same,Activity,HGC-27 [9],Active
same,Activity,HGC-27 [10],Active
same,Activity,MGC-803 [11],Active
same,Activity,MGC-803 [12],Active
same,Activity,HGC-27 [13],Active
same,Activity,HGC-27 [14],Active
same,Activity,HGC-27 [15],Active
same,Activity,MGC-803 [16],1.28%
same,Activity,MGC-803 [17],3.33%
same,Activity,HGC-27 [18],3.5%
same,Activity,HGC-27 [19],3.98%
same,Activity,HGC-27 [20],20%
same,Activity,HGC-27 [21],17%
same,viability at 0.002 µM,HUVEC [22],59.2%
same,Activity,HUVEC [23],58%
same,Activity,HUVEC [24],44%
same,inhibition in vivo at 5 mg/kg,MGC-803 [25],45.8%
same,Activity,MGC-803 [26],Active
